# Laboratory results from patent US20240360177A1, “PEPTIDES WITH ANTIMICROBIAL ACTIVITIES” (priority 2021, published 2024).
# Like-named read-outs stand apart in the source and are kept apart here. Starred links: 1 amine or outer side, 2 acyl side, 3 side chain; linkers in the order of their positions; H or OH if unused. Non-standard residues stand in square brackets, D forms with d. Residues, ends and D or L forms follow the SMILES beside them. NH(CH2)9CO = O=C(CCCCCCCCCN[*:1])[*:2]; Aoc = NCCCCCCCC(=O)O
# What was measured:
# [1] = test system: Staphylococcus aureus ATCC 29213; type: cell-based
# [2] = test system: Escherichia coli ATCC 25922; type: cell-based
# [3] = test system: Klebsiella pneumoniae ATCC 13883; type: cell-based
# [4] = test system: Pseudomonas aeruginosa ATCC 27853; type: cell-based
# [5] = test system: Salmonella senftenberg CDC 127; type: cell-based
# [6] = test system: Shigella sonnei MMX 10772; test: Antibacterial broth microdilution MIC, Shigella sonnei; type: cell-based; conditions: CAMHB
# [7] = test system: Mycobacterium fortuitum ATCC 110; test: Antibacterial broth microdilution MIC, Mycobacterium fortuitum; type: cell-based; conditions: 48 hrs
# [8] = test system: Mycobacterium smegmatis ATCC 700084; type: cell-based; conditions: ATCC 700084, 48 h
# C. albicans = conditions: 24 h
# C. glabrata = conditions: 24 h
# C. parapsilosis = conditions: 24 h
# C. krusei = conditions: 24 h
# C. auris = conditions: 24 h
# C. tropicalis = conditions: 24 h
# C. dubliniensis = conditions: 24 h
# C. neoformans = conditions: 72 h
# C. gattii = conditions: 72 h
# Fusarium spp. = conditions: 48 h
# [9] = test system: Trichophyton rubrum ATCC MYA-4438
# [10] = test system: Epidermophyton floccosum ATCC 52066
# [11] = test system: Microsporum gypseum ATCC 14683
# in vitro [12] = conditions: human
# [13] = Acute toxicity in CD-1 mice; conditions: both sexes, mouse, in vivo
# Method: Acute toxicity and subacute toxicity of ACPs were tested in CD-1 mice. In the acute toxicity study, groups of CD-1 male or female mice were administered single intravenous or intraperitoneal escalating doses (n=2-3 per dose) of the peptides dissolved in normal saline for injection or in phosphate buffered saline. The intravenous dose was administered via tail vein with a slow push over 15-20 seconds. Doses were escalated based on tolerability.
# [14] = Subacute toxicity in CD-1 mice; type: in vivo; conditions: daily IP for 7 days
# Method: In the subacute toxicity study, groups of CD-1 male or female mice were administered seven consecutive daily intraperitoneal doses (n=3 per dose) of the peptides (SEQ ID NO: 7, SEQ ID NO: 29, SEQ ID NO: 53) dissolved in normal saline for injection. Each peptide was evaluated at 2 to 3 dose levels ranging from 2.5 to 7.5 mg/kg/day. Mice were weighed at least once daily and observed at least twice daily for any abnormal findings and determination of overall health. At 24 hrs after the last dose, mice were humanely euthanized, with blood collected through cardiac puncture into K2EDTA microtainers to assess hematological parameters. All three peptides were tolerated at the highest dose evaluated (7.5 mg/kg/day) for 7 days.
# Coccidioides species = conditions: N = 10 strains; 48-72 hrs; >50% inhibition
# Scedosporium spp. = conditions: 72 h
# [15] = mice
# in vitro [16] = conditions: human, human serum, full strength
# [17] = EC50 cytotoxicity in HepG2, intracellular ATP assay
Structure (SMILES),MIC Staphylococcus aureus [1] [µg/mL],MIC Escherichia coli [2] [µg/mL],MIC Klebsiella pneumoniae [3] [µg/mL],MIC Pseudomonas aeruginosa [4] [µg/mL],MIC Salmonella senftenberg [5] [µg/mL],MIC Shigella sonnei [6] [µg/mL],MIC Mycobacterium fortuitum [7] [µg/mL],MIC Mycobacterium smegmatis [8] [µg/mL],MIC C. albicans (C. albicans) [µg/mL],MIC C. glabrata (C. glabrata) [µg/mL],MIC C. parapsilosis (C. parapsilosis) [µg/mL],MIC C. krusei (C. krusei) [µg/mL],MIC C. auris (C. auris) [µg/mL],MIC C. tropicalis (C. tropicalis) [µg/mL],MIC C. dubliniensis (C. dubliniensis) [µg/mL],MIC C. neoformans (C. neoformans) [µg/mL],MIC C. gattii (C. gattii) [µg/mL],MIC Range Fusarium spp. (Fusarium spp.) [µg/mL],MIC Trichophyton rubrum [9] [µg/mL],EC50 (in vitro [12]; [17]) [µg/mL],further results
"N=C(N)NCCC[C@@H](N)C(=O)N[C@@H](CCCNC(=N)N)C(=O)N[C@H](CCCNC(=N)N)C(=O)NCC(=O)N[C@H](CCCNC(=N)N)C(=O)N[C@@H](CCCNC(=N)N)C(=O)N[C@H](CCCNC(=N)N)C(=O)NCC(=O)N[C@H](CCCNC(=N)N)C(=O)N[C@@H](CCCNC(=N)N)C(=O)N[C@H](CCCNC(=N)N)C(=O)N[C@@H](CCCNC(=N)N)C(=O)NCC(=O)N[C@H](CCCNC(=N)N)C(=O)N[C@@H](CCCNC(=N)N)C(=O)N[C@H](CCCNC(=N)N)C(=O)N[C@@H](CCCNC(=N)N)C(=O)N[C@@H](CS)C(=O)O [SEQ ID NO: 2, rRr-G-rRr-G-rRrR-G-rRrR-Cys] (H-[dR]R[dR]G[dR]R[dR]G[dR]R[dR]RG[dR]R[dR]RC-OH)",8,8,64,32,32,16,4,1,0.5,0.5,0.25,0.5,2,0.25,0.5,0.5,0.5,0.12 to 0.25,2,40,MIC Epidermophyton floccosum [10]: 4 µg/mL; MIC Microsporum gypseum [11]: >64 µg/mL; MIC50 against Candida spp. (Candida spp.): 0.5 µg/mL; MIC90 against Candida spp. (Candida spp.): 2 µg/mL; EC50 (in vitro [12]; EC50 cytotoxicity in HepG2 cells (50% cell viability)): 39.6 µg/mL
"N=C(N)NCCC[C@@H](N)C(=O)N[C@@H](CCCNC(=N)N)C(=O)N[C@H](CCCNC(=N)N)C(=O)NCCCCCCCCCC(=O)N[C@H](CCCNC(=N)N)C(=O)N[C@@H](CCCNC(=N)N)C(=O)N[C@H](CCCNC(=N)N)C(=O)NCCCCCCCC(=O)N[C@H](CCCNC(=N)N)C(=O)N[C@@H](CCCNC(=N)N)C(=O)N[C@H](CCCNC(=N)N)C(=O)N[C@@H](CCCNC(=N)N)C(=O)NCCCCCCCC(=O)N[C@H](CCCNC(=N)N)C(=O)N[C@@H](CCCNC(=N)N)C(=O)N[C@H](CCCNC(=N)N)C(=O)N[C@@H](CCCNC(=N)N)C(=O)NCCCCCCCC(=O)O [SEQ ID NO: 34, rRr-(Ada)-rRr-(Aoa)-rRrR-(Aoa)-rRrR-Aoa] (H-[dR]R[dR][NH(CH2)9CO][dR]R[dR][Aoc][dR]R[dR]R[Aoc][dR]R[dR]R[Aoc]-OH)",16,4,8,16,8,4,2,1,2,8,0.5,1,0.5,0.5,0.5,0.5,0.5,0.25 to 2,4,162,MIC Epidermophyton floccosum [10]: 8 µg/mL; MIC Microsporum gypseum [11]: 32 µg/mL
"N=C(N)NCCC[C@@H](N)C(=O)N[C@@H](CCCNC(=N)N)C(=O)N[C@H](CCCNC(=N)N)C(=O)N1CCC[C@H]1C(=O)N[C@H](CCCNC(=N)N)C(=O)N[C@@H](CCCNC(=N)N)C(=O)N[C@H](CCCNC(=N)N)C(=O)N1CCC[C@H]1C(=O)N[C@H](CCCNC(=N)N)C(=O)N[C@@H](CCCNC(=N)N)C(=O)N[C@H](CCCNC(=N)N)C(=O)N[C@@H](CCCNC(=N)N)C(=O)N1CCC[C@H]1C(=O)N[C@H](CCCNC(=N)N)C(=O)N[C@@H](CCCNC(=N)N)C(=O)N[C@H](CCCNC(=N)N)C(=O)N[C@@H](CCCNC(=N)N)C(N)=O [SEQ ID NO: 53, rRr-P-rRr-P-rRrR-P-rRrR-NH2] (H-[dR]R[dR]P[dR]R[dR]P[dR]R[dR]RP[dR]R[dR]R-NH2)",–,–,–,–,–,–,–,–,0.5,0.5,0.25,0.5,0.25,0.5,0.25,0.5,0.25,0.25,–,> 300,"MTD ([13]; single IP dose, read-out: Tolerated single intraperitoneal dose): 10 to 15 mg/kg; MTD ([13]; single IV dose via tail vein, read-out: Tolerated single intravenous dose): 5 to 7.5 mg/kg; Tolerated dose (highest dose evaluated) [14]: 7.5 mg/kg/day; Clinical or hematological adverse effects ([14]; up to 7.5 mg/kg/day): No significant clinical or hematological adverse effects were observed; MIC Range Coccidioides species (Coccidioides species): 0.06 to 0.25 µg/mL; MIC Range Scedosporium spp. (Scedosporium spp.): 0.25 µg/mL; MIC Range Lomentospora prolificans (Lomentospora prolificans): 0.12 µg/mL; Activity at 24 h MIC50 against Candida spp. (Candida spp.; 24 h): 0.5 µg/mL; Activity at 24 h MIC90 against Candida spp. (Candida spp.; 24 h): 0.5 µg/mL; Activity at 48 h MIC50 against Candida spp. (Candida spp.; 48 h): 0.5 µg/mL; Activity at 48 h MIC90 against Candida spp. (Candida spp.; 48 h): 2 µg/mL; MIC Range Cryptococcus spp. (Cryptococcus spp.): 0.25 to 0.5 µg/mL; MIC Range Filamentous Fungi (Filamentous Fungi): 0.12 to 0.25 µg/mL; Kidney to Plasma Concentration Ratio Day 7 ([15]; 6 hrs post dose of 7.5 mg/kg IP once daily, Day 7, mean ± SD, n = 3): 916 ± 36; Kidney to Plasma Concentration Ratio Day 1 ([15]; 6 hrs post dose of 7.5 mg/kg IP, Day 1, mean ± SD, n = 3): 179 ± 106; Day 1 AUC ratio, kidney to plasma ([15]; IP 7.5 mg/kg, Day 1): 58.3; remaining at 2 h, 5 μM (in vitro [16]): ~100%"
